Like-named read-outs stand apart in the source and are kept apart here.
Experiments:
[1] = test system: Aβ40 in conditioned medium of cells stably expressing Amyloid Precursor Protein (APP); experiment: In vitro BACE cell-based assay (HEK cell assay), Aβ40 sandwich ELISA; conditions: Homo sapiens, HEK293
Protocol: In Vitro BACE Cell-Based Assay
The cell-based assay measures inhibition or reduction of Aβ40 in conditioned medium of test compound treated cells expressing amyloid precursor protein.
Cells stably expressing Amyloid Precursor Protein (APP) were plated at a density of 40K cells/well in 96 well plates (Costar). The cells were cultivated for 24 hours at 37C. and 5% CO2 in DMEM supplemented with 10% FBS. The test compounds were then added to cells in 10-point dose response concentrations with the starting concentration being either 100 μM or 10 μM. The compounds were diluted from stock solutions in DMSO and the final DMSO concentration of the test compounds on cells was 0.1%. After 24 h of incubation with the test compounds the supernatant conditioned media was collected and the Aβ 40 levels were determined using a sandwich ELISA. The IC50 of the compound was calculated from the percent of control or percent inhibition of Aβ 40 as a function of the concentration of the test compound.
The sandwich ELISA to detect Aβ 40 was performed in 96 well microtiter plates, which were pre-treated with goat anti-rabbit IgG (Pierce). The capture and detecting antibody pair that were used to detect Aβ 40 from cell supernatants were affinity purified pAb40 (Biosource) and biotinylated 6E10 (Signet Labs Inc.), respectively. The optimal concentration for the pAb40 antibody was 3 μg/ml in Superblock/TBS (Pierce) that was supplemented with 0.05% Tween 20 (Sigma). Optimal concentration for the detection antibody 6E10-biotinylated was 0.5 μg/ml in Superblock/TBS (Pierce) that had been supplemented with 2% normal goat serum and 2% normal mouse serum.
Cellular supernatants were incubated with the capture antibody for 3 h at 4° C., followed by 3 wash steps in TBS-tween (0.05%). The detecting antibody incubation was for 2 h at 4° C., again followed by the wash steps as described previously. The final readout of the ELISA is Time-Resolved Fluorescence (counts per minute) using Delfia reagents Streptavidin-Europium and Enhancement solutions (Perkin Elmer) and the Victor 2 multilabel counter (Perkin Elmer).

[2] = molecular target: Beta Secretase enzyme (BACE1) (Homo sapiens, UniProt P56817); experiment: In vitro enzymatic BACE FRET assay; assay type: biochemical; conditions: read-out: BACE1 FRET assay IC50
Beta Secretase enzyme (BACE1), sequence (P56817 46-501): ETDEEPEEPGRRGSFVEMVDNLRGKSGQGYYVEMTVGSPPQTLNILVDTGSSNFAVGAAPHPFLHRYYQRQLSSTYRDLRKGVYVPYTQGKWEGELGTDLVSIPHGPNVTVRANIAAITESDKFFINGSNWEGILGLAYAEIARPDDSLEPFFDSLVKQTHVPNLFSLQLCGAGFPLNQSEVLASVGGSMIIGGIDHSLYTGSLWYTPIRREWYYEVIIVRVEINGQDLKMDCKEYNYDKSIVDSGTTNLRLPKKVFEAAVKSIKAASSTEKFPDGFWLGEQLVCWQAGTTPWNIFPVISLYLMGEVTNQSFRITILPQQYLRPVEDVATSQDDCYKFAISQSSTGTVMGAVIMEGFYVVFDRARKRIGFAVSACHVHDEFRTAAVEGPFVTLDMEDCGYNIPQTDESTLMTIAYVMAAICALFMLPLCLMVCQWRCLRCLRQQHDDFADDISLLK
Protocol: In Vitro Enzymatic BACE FRET (Fluorescence Resonance Energy Transfer) Assay (Enzyme Assay Data in the Example Tables I and II)
The assay buffer used in this screen is 0.05 M acetate, pH 4.2, 10% DMSO final, 100 uM genapol (which is a nonionic detergent, below its Critical Micelle Concentration). […] This assay is effectively started by the addition of FRET substrate (50 nM) and the combination is incubated for one hour. The FRET assay is terminated with by addition of Tris buffer, which raises the pH to neutrality, and the fluorescence is determined. The FRET substrate is a peptide with commercially available fluorophore and quencher, on opposite sides of the BACE cleavage site. Proteolytic cleavage of the FRET substrate releases quenching of fluorescence (excitation […] and […]).

Cathepsin D (Cat D) = molecular target: T1, Cathepsin D (Cat D) (Homo sapiens, UniProt P07339); experiment: In vitro enzymatic Cathepsin D (Cat D) FRET assay; assay type: biochemical; conditions: read-out: CatD IC50
T1 construct: Recombinant Cat D was expressed in CHO cells; made in house; host or cells: CHO cells
T1 sequence (P07339 65-412, species assumed): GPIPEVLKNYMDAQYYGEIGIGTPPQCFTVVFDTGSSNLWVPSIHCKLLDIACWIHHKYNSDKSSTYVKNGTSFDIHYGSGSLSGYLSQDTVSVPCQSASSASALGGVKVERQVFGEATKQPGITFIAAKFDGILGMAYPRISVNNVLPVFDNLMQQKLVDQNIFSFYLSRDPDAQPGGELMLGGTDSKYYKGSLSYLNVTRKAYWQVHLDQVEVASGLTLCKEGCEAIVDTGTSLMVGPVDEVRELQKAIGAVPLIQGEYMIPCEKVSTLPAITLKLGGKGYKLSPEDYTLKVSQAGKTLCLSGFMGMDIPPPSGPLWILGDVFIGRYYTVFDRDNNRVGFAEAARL
Protocol: In Vitro Enzymatic Cathepsin D (Cat D) FRET (Fluorescence Resonance Energy Transfer) Assay Recombinant Cat D was expressed in CHO cells. […] The Cat D enzyme (9 nM) is pre-incubated for one hour with inhibitors, typically in about 1 uL of DMSO according to a serial dilution, is added thereto. […] The FRET assay is terminated with by addition of Tris buffer, which raises the pH to neutrality, and the fluorescence is determined. The FRET substrate is a peptide with commercially available fluorophore and quencher, on opposite sides of the BACE cleavage site. The Cat D substrate peptide sequence is based on sequence #1 of Table 1 from Gulnik et al. […] Alternatively, a Cat D assay may also be run according to the procedure described in the article, Characterization of new fluorgenic substrates for the rapid and sensitive assay of cathepsin E and cathepsin D, J. Biochem., 125:1137, 1999. In addition, the cathepsin D and cathepsin E assays are described in PCT publication WO2011069934. This WIPO publication describes BACE inhibitor compounds having an amide linker connecting two aromatic groups with extremely poor cathepsin D and/or cathepsin E inhibitory activity (see Table 2). Where available, the in-vitro Cat D FRET assay data for each of the Examples, conducted by the first procedure, is provided.

| Structure (SMILES) | IC50 ([1]; average IC50, HEK cells) [nM] | IC50 ([2]; average IC50) [nM] | IC50 (Cathepsin D (Cat D)) [nM] | IC50 ([1]; Aβ40, 24 h incubation) [nM] | IC50 [2] [nM] | IC50 ([2]; average IC50, enzyme assay) [nM] |
| --- | --- | --- | --- | --- | --- | --- |
| C[C@@]1(c2cc(Br)ccc2F)CS(=O)(=O)C2(CCOC2)C(N)=N1 (mixture of isomers) [Example 181, (8R)-10-Amino-8-(5-bromo-2-fluorophenyl)-8-methyl-2-oxa-6-thia-9-azaspiro[4.5]dec-9-ene 6,6-dioxide] | > 15600 | 16300 | 43300 |  |  |  |
| C[C@@]1(c2cc(Nc3nccc4cc(Cl)cnc34)ccc2F)CS(=O)(=O)C2(CCOC2)C(N)=N1 (mixture of isomers) [Example 182, (8R)-10-amino-8-(5-((3-chloro-1,7-naphthyridin-8-yl)amino)-2-fluorophenyl)-8-methyl-2-oxa-6-thia-9-azaspiro[4.5]dec-9-ene 6,6-dioxide] | 30.6 | 2.2 | 63600 |  |  |  |
| CC1(C)C(N)=N[C@](C)(c2cc(Nc3nccc4cc(Cl)cnc34)cc(F)c2F)CS1(=O)=O (single isomer, unassigned) [Example 70] |  |  | 164000 | 5040 | 830 |  |
| CC1(C)C(N)=N[C@](C)(c2cc(NC(=O)c3ccc(F)cn3)ccc2F)CS1(=O)=O [Example 18, N-(3-((3R)-5-amino-3,6,6-trimethyl-1,1-dioxido-3,6-dihydro-2H-1,4-thiazin-3-yl)-4-fluorophenyl)-5-fluoro-2-pyridinecarboxamide] |  |  | > 400000 | 3.7 | 1.9 |  |
| CC1(C)C(N)=N[C@](C)(c2cc(NC(=O)c3ccc(C(F)F)cn3)ccc2F)CS1(=O)=O [Example 20, N-(3-((3R)-5-amino-3,6,6-trimethyl-1,1-dioxido-3,6-dihydro-2H-1,4-thiazin-3-yl)-4-fluorophenyl)-5-(difluoromethyl)-2-pyridinecarboxamide] |  |  | 193000 | 3.9 | 2.7 |  |
| CC1(C)C(N)=N[C@](C)(c2cc(NC(=O)c3cnc(C(F)(F)F)cn3)ccc2F)CS1(=O)=O [Example 21, N-(3-((3R)-5-amino-3,6,6-trimethyl-1,1-dioxido-3,6-dihydro-2H-1,4-thiazin-3-yl)-4-fluorophenyl)-5-(trifluoromethyl)-2-pyrazinecarboxamide] |  |  | > 400000 | 11 | 7.4 |  |
| COc1ccc(C(=O)Nc2ccc(F)c([C@]3(C)CS(=O)(=O)C(C)(C)C(N)=N3)c2)nc1 [Example 22, N-(3-((3R)-5-amino-3,6,6-trimethyl-1,1-dioxido-3,6-dihydro-2H-1,4-thiazin-3-yl)-4-fluorophenyl)-5-methoxy-2-pyridinecarboxamide] |  |  | > 400000 | 3.1 | 1.5 |  |
| CC1(C)C(N)=N[C@](C)(c2cc(NC(=O)c3ccc(C#N)cn3)ccc2F)CS1(=O)=O [Example 23, N-(3-((3R)-5-amino-3,6,6-trimethyl-1,1-dioxido-3,6-dihydro-2H-1,4-thiazin-3-yl)-4-fluorophenyl)-5-cyano-2-pyridinecarboxamide] |  |  | 617000 | 2.7 | 2.7 |  |
| CC1(C)C(N)=N[C@](C)(c2cc(NC(=O)c3ncc(Cl)cc3F)ccc2F)CS1(=O)=O [Example 24, N-(3-((3R)-5-amino-3,6,6-trimethyl-1,1-dioxido-3,6-dihydro-2H-1,4-thiazin-3-yl)-4-fluorophenyl)-5-chloro-3-fluoro-2-pyridinecarboxamide] |  |  | > 400000 | 3.7 | 0.6 |  |
| Cc1cc(Cl)cnc1C(=O)Nc1ccc(F)c([C@]2(C)CS(=O)(=O)C(C)(C)C(N)=N2)c1 [Example 25, N-(3-((3R)-5-amino-3,6,6-trimethyl-1,1-dioxido-3,6-dihydro-2H-1,4-thiazin-3-yl)-4-fluorophenyl)-5-chloro-3-methyl-2-pyridinecarboxamide] |  |  | 263000 | 3.2 | 0.3 |  |
| CC#CCOc1cnc(C(=O)Nc2ccc(F)c([C@]3(C)CS(=O)(=O)C(C)(C)C(N)=N3)c2)cn1 [Example 26, N-(3-((3R)-5-amino-3,6,6-trimethyl-1,1-dioxido-3,6-dihydro-2H-1,4-thiazin-3-yl)-4-fluorophenyl)-5-(2-butyn-1-yloxy)-2-pyrazinecarboxamide] |  |  | 475000 | 0.05 | 0.4 |  |
| Cc1nc(C(=O)Nc2ccc(F)c([C@]3(C)CS(=O)(=O)C(C)(C)C(N)=N3)c2)cs1 [Example 27, N-(3-((3R)-5-amino-3,6,6-trimethyl-1,1-dioxido-3,6-dihydro-2H-1,4-thiazin-3-yl)-4-fluorophenyl)-2-methyl-1,3-thiazole-4-carboxamide] |  |  | > 400000 | 60.9 | 51 |  |
| COc1cnc(C(=O)Nc2ccc(F)c([C@]3(C)CS(=O)(=O)CC(N)=N3)c2)cn1 [Example 28, N-(3-((3R)-5-amino-3-methyl-1,1-dioxido-3,6-dihydro-2H-1,4-thiazin-3-yl)-4-fluorophenyl)-5-methoxy-2-pyrazinecarboxamide] |  |  | 50900 | 68 | 14.9 |  |
| C[C@@]1(c2cc(NC(=O)c3ccc(Cl)cn3)ccc2F)CS(=O)(=O)CC(N)=N1 [Example 29, N-(3-((3R)-5-amino-3-methyl-1,1-dioxido-3,6-dihydro-2H-1,4-thiazin-3-yl)-4-fluorophenyl)-5-chloro-2-pyridinecarboxamide] |  |  | 118000 | 10.8 | 6 |  |
| CC1(C)C(N)=N[C@](C)(c2cc(Nc3ncnc4cc(C#N)cnc34)ccc2F)C(F)S1(=O)=O (stereo partly drawn) [Example 229, 4-((3-((3R)-5-amino-2-fluoro-3,6,6-trimethyl-1,1-dioxido-3,6-dihydro-2H-1,4-thiazin-3-yl)-4-fluorophenyl)amino)pyrido[3,2-d]pyrimidine-7-carbonitrile] |  |  | 80700 |  |  | 1.01 |
| NC1=N[C@@](CF)(c2cc(Nc3nccc4cc(Cl)cnc34)ccc2F)CS(=O)(=O)C12CCC2 [Example 244, N-(3-((7R)-9-amino-7-(fluoromethyl)-5,5-dioxido-5-thia-8-azaspiro[3.5]non-8-en-7-yl)-4-fluorophenyl)-3-chloro-1,7-naphthyridin-8-amine] |  |  | 528000 |  |  | 3530 |
| COc1ccnc(Oc2ccc(F)c([C@]3(C)CS(=O)(=O)C(C)(C)C(N)=N3)c2)c1 [Example 287, (5R)-5-(2-fluoro-5-((4-methoxy-2-pyridinyl)oxy)phenyl)-2,2,5-trimethyl-5,6-dihydro-2H-1,4-thiazin-3-amine 1,1-dioxide] |  |  | 204000 |  |  | 100 |
| CC1(C)C(N)=N[C@](C)(c2cc(Oc3ncccn3)ccc2F)CS1(=O)=O [Example 288, (5R)-5-(2-fluoro-5-(2-pyrimidinyloxy)phenyl)-2,2,5-trimethyl-5,6-dihydro-2H-1,4-thiazin-3-amine 1,1-dioxide] |  |  | 222000 |  |  | 125 |
| COc1cnc2c(Oc3ccc(F)c([C@]4(C)CS(=O)(=O)C(C)(C)C(N)=N4)c3)nccc2c1 [Example 305, (5R)-5-(2-fluoro-5-((3-methoxy-1,7-naphthyridin-8-yl)oxy)phenyl)-2,2,5-trimethyl-5,6-dihydro-2H-1,4-thiazin-3-amine 1,1-dioxide] |  |  | 680000 |  |  | 2070 |

Source: US20140107109A1, “AMINO-DIHYDROTHIAZINE AND AMINO-DIOXIDO DIHYDROTHIAZINE COMPOUNDS AS BETA-SECRETASE ANTAGONISTS AND METHODS OF USE” (Amgen Inc., priority 2012, published 2014)
